These results are taken from US4552874A, “Pyrazolooxazines, pyrazolothiazines, and pryazoloquinolines and their use as medicaments” (Bayer Aktiengesellschaft, priority 1982, dated 1985).

Series [1] addresses T1, Lipoxygenase in platelet (Homo sapiens, UniProt P18054).
T1 construct: the metabolism of radioactively labelled arachidonic acid on washed human platelets is used; endogenous in cells; host or cells: washed human platelets
T1 sequence (P18054 1-663): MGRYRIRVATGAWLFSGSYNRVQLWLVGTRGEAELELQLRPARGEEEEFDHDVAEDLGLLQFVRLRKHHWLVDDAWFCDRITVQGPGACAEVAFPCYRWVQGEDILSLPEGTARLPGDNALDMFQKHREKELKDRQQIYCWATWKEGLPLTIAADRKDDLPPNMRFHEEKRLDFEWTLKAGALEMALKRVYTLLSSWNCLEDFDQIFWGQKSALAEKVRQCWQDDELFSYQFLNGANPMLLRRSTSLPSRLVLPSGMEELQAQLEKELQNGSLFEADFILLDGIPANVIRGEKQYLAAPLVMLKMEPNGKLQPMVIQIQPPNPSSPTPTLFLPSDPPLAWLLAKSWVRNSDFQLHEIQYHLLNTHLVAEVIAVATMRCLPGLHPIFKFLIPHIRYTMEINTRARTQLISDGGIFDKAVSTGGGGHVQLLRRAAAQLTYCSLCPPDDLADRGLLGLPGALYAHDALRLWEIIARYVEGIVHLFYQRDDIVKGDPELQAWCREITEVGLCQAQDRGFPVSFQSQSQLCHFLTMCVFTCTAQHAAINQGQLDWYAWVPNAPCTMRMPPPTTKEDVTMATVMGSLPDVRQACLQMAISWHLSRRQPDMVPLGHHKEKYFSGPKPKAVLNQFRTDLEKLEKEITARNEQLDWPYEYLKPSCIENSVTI
Briefly: Inhibition of lipoxygenase in washed human platelets (HETE synthesis from radioactively labelled arachidonic acid). Type of series: cell-based. The following applies: in vitro. On the procedure: In this test method, the metabolism of radioactively labelled arachidonic acid on washed human platelets is used. In this in vitro test, the radioactively labelled metabolites are extracted from the reaction mixture and separated by thin-layer chromatography. The autoradiogram is evaluated on a thin-layer scanner. Under these test conditions, the labelled metabolites are separated from the unreacted arachidonic acid and can then be evaluated quantitatively. The distribution of radioactivity over the products of cyclooxygenase formed during the metabolism, thromboxane B2 (TXB2) and 12-hydroxy-5,8,10-heptadecatrienoic acid (HHT) and the product of lipoxygenase, 12-hydroxy-5,8,11,14-eicosatetraenoic acid (HETE), under the influence of the inhibitors provides a measure of the inhibition of the enzymes.
The inhibition of lipoxygenase by the compounds according to the invention can be measured by the inhibition of synthesis of HETE. It emerges that the synthesis of TXB2 and of HHT remains unaffected, whilst the conversion of arachidonic acid decreases. […] (Compare Table 1).

For series [2], the system named is Lipoxygenase in PMN Leucocytes. Description: Inhibition of lipoxygenase in PMN leucocytes (liberation of 5-HETE and leukotriene B4). Type of series: cell-based, humans and rabbits. The conditions noted are these: in vitro. On the procedure: The polymorphonuclear leucocytes of humans and of rabbits metabolise arachidonic acid to 5-hydroxy-5,8,11,14-eicosatetraenoic acid (5-HETE) and leukotriene B4 (5S, 12R-dihydroxy-6 cis, 8,10-trans-14 cis-eicosatetraenoic acid). The inhibition of the liberation of 5-HETE and leukotriene B4 from the leucocytes provides a measure of the lipoxygenase-inhibitory effect of the compounds according to the invention. (Compare Table 1).
The test with human leucocytes is carried out by the method of Borgeat and Samuelsson (j. Biol. Chem. 254; 2643, 1979 and Proc. Natl. Acad. Sci. USA, 76, 2148 (1979), and with rabbit leucocytes by the method of Walker and Parish (Inter. Archs. Allergy appl. Immun. 66, 83, 1981).

The subject of series [3] is cyclooxygenase. The following applies: cited from earlier work.
For series [4] the following is noted: systemic administration (for example orally); cited from earlier work.
Series [5] deals with prostacyclin synthesis in strips of rabbit aorta. Description: Stimulation of prostacyclin synthesis in strips of rabbit aorta. The conditions noted are these: Oryctolagus cuniculus, 1 h, read-out: Stimulation in % compared to control (prostacyclin synthesis); for activation at 2 µg/mL: 2.10^6 g/ml of substance. It counts as cell-based.
In series [6] the test system is melanoma B 16. Briefly: Inhibition of the initiation of pulmonary metastases in melanoma B 16. Type of series: in vivo. The following applies: melanoma B 16, mouse, three i.p. administrations of 1 mg/kg. The text has this: (§1) The compounds according to the invention are also active in vivo. […] The compounds according to the invention also reduce the formation of oedema in the model of carrageenan inflammation, (compare Table 3) and inhibit the formation of metastases from B-16 melanoma (method of Honn, et. al. Science 212, 1270, 1981).

In series [7] the test system is carrageenan oedema. Description: Inhibition of carrageenan oedema formation. It counts as in vivo. The following applies: rat, oral administration of 25 mg/kg.
Description: as §1
For orientation: In the carrageenan paw model, swelling and tenderness develop within hours.

For orientation: inhibition in vivo means the percentage by which the read-out fell short of the control.

Consider `CN(C)S(=O)(=O)c1ccc2c(c1)Oc1cn[nH]c1N2`, for which the “Minimum concentration (g/ml) for inhibition of Lipoxygenase in platelet” value in series [1] is listed as 10^-5 g/ml.

`Cn1ncc2c1Nc1ccccc1O2`: the “Minimum concentration (g/ml) for inhibition of Lipoxygenase in PMN Leucocytes” value in series [2] is 10^-6 g/ml. In addition, in series [1], the “Minimum concentration (g/ml) for inhibition of Lipoxygenase in platelet” value was 10^-6 g/ml.

As for `Cn1ncc2c1Nc1cc(Cl)ccc1O2`, the “Minimum concentration (g/ml) for inhibition of Lipoxygenase in PMN Leucocytes” value in series [2] is 10^-6 g/ml. Further, in series [1], the “Minimum concentration (g/ml) for inhibition of Lipoxygenase in platelet” value is 10^-6 g/ml.

As to `Clc1ccc2c(c1)Nc1[nH]ncc1S2`, the “Minimum concentration (g/ml) for inhibition of Lipoxygenase in platelet” value in series [1] is listed as 10^-6 g/ml.

In the case of `Cc1ccc2c(c1)Nc1[nH]ncc1S2`, in series [2], the “Minimum concentration (g/ml) for inhibition of Lipoxygenase in PMN Leucocytes” value is reported as 10^-6 g/ml. Further, the “Minimum concentration (g/ml) for inhibition of Lipoxygenase in platelet” value in series [1] is 10^-6 g/ml.

For the compound `NC1=NN(c2cccc(C(F)(F)F)c2)CC1` [3-amino-1-(m-trifluoromethylphenyl)-2-pyrazoline], the “action of known lipoxygenase inhibitors, in words” value in series [3] is “either also act as inhibitors of cyclooxygenase or only act at very high concentrations”. For the same compound, the “toxic side effects, in words” value in series [4] is given as “toxic side effects on systemic administration (for example orally)”.

Consider `CCCCCC#CCC#CCC#CCC#CCCCC(=O)O` [5,8,11,14-eicosatetraynoic acid], for which, in series [3], the “action of known lipoxygenase inhibitors, in words” value is on record as “either also act as inhibitors of cyclooxygenase or only act at very high concentrations”.

On to `c1ccc2c(c1)Nc1[nH]ncc1S2` [Compound 12], for which, in series [5], the activation at 2 µg/mL turned out to be 80%.

Take `c1cnc2c(c1)Oc1cn[nH]c1N2` [Compound 17]: the activation at 2 µg/mL in series [5] came out at 200%.

For the compound `c1ccc2cc3c(cc2c1)Nc1[nH]ncc1O3` [Compound 18], the “% Inhibition of the initiation of pulmonary metastases” value in series [6] was 36%.

In the case of `Cn1ncc2c1Nc1cc3ccccc3cc1O2` [Compound 19], in series [6], the “% Inhibition of the initiation of pulmonary metastases” value came to 30%.

For `CN1c2ccccc2Oc2cnn(C)c21` [Compound 24], the activation at 10 µg/mL in series [5] (at 10^-5 g/ml substance concentration) was 100%.

For `CCOC(=O)Cn1cc2c(n1)N(C1CCCCC1)c1ccccc1O2` [Compound 39, Ethyl (9-cyclohexylpyrazolo[4,3-b][1,4]benzoxazin-2-yl) acetate], in series [7], the inhibition in vivo at 25 mg/kg is 47.5%.

In the case of `O=C(O)Cn1cc2c(n1)N(C1CCCCC1)c1ccccc1O2` [Compound 40, 9-Cyclohexylpyrazolo[4,3-b][1,4]benzoxazine-2-acetic acid], in series [2], the “Minimum concentration (g/ml) for inhibition of Lipoxygenase in PMN Leucocytes” value is > 10^-5 g/ml. The inhibition in vivo at 25 mg/kg in series [7] was found to be 44%.

`CN1c2ccccc2Oc2cn(C(=O)c3ccccn3)nc21` [Compound 42] displayed an inhibition in vivo at 25 mg/kg in series [7] of 67.3%.

Consider `CC(=O)n1cc2c(n1)N(C)c1ccccc1O2` [Compound 44, 2-Acetyl-9-methylpyrazolo[4,3-b][1,4]benzoxazine], for which, in series [7], the inhibition in vivo at 25 mg/kg came to 70%.

As to `Clc1ccc2c(c1)Nc1[nH]ncc1O2` [drawing 13], the “Minimum concentration (g/ml) for inhibition of Lipoxygenase in PMN Leucocytes” value in series [2] is reported as 10^-6 g/ml. For the same compound, the “Minimum concentration (g/ml) for inhibition of Lipoxygenase in platelet” value in series [1] is 10^-6 g/ml.

Regarding `Cc1ccc2c(c1)Nc1[nH]ncc1O2` [drawing 14], the “Minimum concentration (g/ml) for inhibition of Lipoxygenase in PMN Leucocytes” value in series [2] is reported as 10^-6 g/ml. Further, the “Minimum concentration (g/ml) for inhibition of Lipoxygenase in platelet” value in series [1] was 10^-6 g/ml.

On to `c1ccc2cc3c(cc2c1)Nc1[nH]ncc1O3` [drawing 29], for which the “Minimum concentration (g/ml) for inhibition of Lipoxygenase in PMN Leucocytes” value in series [2] is listed as 10^-6 g/ml. Also, the “Minimum concentration (g/ml) for inhibition of Lipoxygenase in platelet” value in series [1] was 10^-6 g/ml.

As to `CC(Cc1ccc(O)c(O)c1)C(C)Cc1ccc(O)c(O)c1` (centres unmarked) [nordihydroguaiaretic acid], the “action of known lipoxygenase inhibitors, in words” value in series [3] was “either also act as inhibitors of cyclooxygenase or only act at very high concentrations”.

Turning to `O=C1CCN(c2ccccc2)N1` [phenidone], in series [3], the “action of known lipoxygenase inhibitors, in words” value is “either also act as inhibitors of cyclooxygenase or only act at very high concentrations”.
